Values of other authors as cited in patent publication US20080014263A1, “Amorphous eprosartan mesylate and process for the preparation thereof” (Glenmark Pharmaceuticals Limited, priority 2006, published 2008).
Structures can show the parent of a compound that is named as a salt.

Details: white to off-white free-flowing crystalline powder

For CCCCc1ncc(/C=C(\Cc2cccs2)C(=O)O)n1Cc1ccc(C(=O)O)cc1 [Eprosartan mesylate, monomethanesulphonate of (E)-2-butyl-1-(p-carboxybenzyl)-α-2-thienylmethylimidazole-5-acrylic acid], the solubility in ethanol (ethanol) is given as “freely soluble” and the solubility in water (water) is given as “insoluble”.
